These results are taken from article PMC7109729 (Haematologica, 2020).

The term Kd denotes the equilibrium constant for the complex coming apart. The low end stands for tighter binding, the high end for weaker binding.

SMILES strings stand for the structures.

In this experiment the target is T1, peroxisome proliferator-activated receptor-γ (PPARγ) (Homo sapiens, UniProt P37231).
T1 sequence (P37231 223-505 limits assumed): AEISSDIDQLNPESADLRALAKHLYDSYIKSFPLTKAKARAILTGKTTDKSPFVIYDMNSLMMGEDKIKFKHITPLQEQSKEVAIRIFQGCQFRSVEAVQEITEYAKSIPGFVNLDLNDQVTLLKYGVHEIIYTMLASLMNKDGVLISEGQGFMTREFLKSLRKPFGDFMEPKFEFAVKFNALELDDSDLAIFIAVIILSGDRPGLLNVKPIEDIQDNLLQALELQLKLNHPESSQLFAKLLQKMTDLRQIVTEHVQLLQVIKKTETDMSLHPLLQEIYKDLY
Briefly: SPR. It is filed as binding.

In turn, `CC(C)/N=c1\cc2n(-c3ccc(Cl)cc3)c3ccccc3nc-2cc1Nc1ccc(Cl)cc1` [CFZ, clofazimine] registered an equilibrium dissociation constant (Kd) of 0.079 µM.
